Source: US20110217293A1, “Uses of morelloflavone” (priority 2008, published 2011)
Entries after “also recorded” stand apart in the source; their conditions may differ. Read-outs that look alike come from different tables or passages of the source.

How the values were obtained:
[1] = system: focal adhesion kinase (FAK); experiment: Western blot, phosphorylation of FAK; format: cell-based, mouse; details: low concentrations (0.1 & 1 mM), 5 min
Method: (§1) For the evaluation of phosphorylated FAK and c-Src, Western blot analyses were performed as described (15). Briefly, vascular smooth muscle cells were seeded on 10-cm dishes, treated with various concentrations of morelloflavone for 5 min, and harvested into RIPA buffer with protease inhibitor cocktails. Cleared cell lysates ([…] of protein) were incubated with anti-FAK or anti-c-Src antibodies at 4° C. for 1 hr in a final volume of 1 mL RIPA buffer, and incubated for another 1 hr with protein A/G agarose beads (Santa Cruz; SCBT sc-2003). Immunoprecipitated proteins were eluted into SDS-loading 7 buffer and subjected to 12% SDS-PAGE and immunoblotting using anti-FAK (Santa Cruz; A-17; sc-557) and anti-c-Src (Santa Cruz; SRC-2; sc-18) antibodies for total FAK and c-Src, respectively, and anti-phosphotyrosine antibody (Santa Cruz; PY-20; sc-508) for phosphorylated FAK and c-Src. Densitometric analyses were performed using Adobe Photoshop (Adobe Systems Incorporated, San Jose, Calif.).

[2] = system: vascular smooth muscle cells; experiment: MTT cell death (viability) assay; format: cell-based, mouse; set-up: dose or concentration left out as unconfirmed; details: 48 hrs
Method: Mouse vascular smooth muscle cells, isolated as described (13), were maintained in 231 media (Cascade Biologics, Portland, Oreg.) supplemented with SMGS (Cascade Biologics) in a humidified incubator at 37° C. with 5% CO2. Cells from passages 4-9 were used in all experiments. All experiments were performed in subconfluent, unsynchronized cells growing in SMGS except for the lamellipodium formation assay. Vascular smooth muscle cells were plated at 1×10^4 cells per well in 96-well culture plates and incubated overnight. The cells were treated with various concentrations of morelloflavone for 48 hrs. Then, the cells were exposed to MTT labeling reagent at 10 mg/mL for 4 hrs and solubilized in 0.01 N HCl containing 10% SDS overnight. Formed formazan was measured via spectrophotometry at 600 nm.

c-Src = experiment: Western blot, phosphorylation of c-Src; format: cell-based, mouse; details: low concentrations (0.1 & 1 mM), 5 min
Method: as §1

Analysis of lipids = format: in vivo, mouse; details: Ldlr−/−Apobec1−/− mice, morelloflavone diet 8 months
Method: Plasma levels of triglycerides, total cholesterol, phospholipids, and non-esterified fatty acids of control and morelloflavone-treated animals were measured and using commercially available kits according to manufacturer's instruction (Randox Laboratories, Crumlin, UK; Thermo Fisher Scientific, Waltham, Mass.; Wako Chemicals, Richmond, Va.).

sPLA2-IB = sPLA2-IB (Homo sapiens, UniProt P04054); experiment: sPLA2 enzyme activity assay, Group IB; format: biochemical; details: recombinant human sPLA2-IB, data not shown
Chain of sPLA2-IB (P04054 23-148): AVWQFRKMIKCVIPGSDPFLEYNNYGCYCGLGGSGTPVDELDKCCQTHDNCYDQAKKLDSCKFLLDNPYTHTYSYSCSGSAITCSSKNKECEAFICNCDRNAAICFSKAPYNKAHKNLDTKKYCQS
Method: Recombinant human sPLA2 isoforms, Group IB, Group IIA, Group V, and Lp-PLA2 were obtained from R&D Systems and Cayman Chemical Co. sPLA2 enzyme activities in the presence of various concentrations of morelloflavone or other inhibitors were determined using a commercially available assay system according to the manufacturer's instructions (Cayman Chemical Co.). Thioetheramide-1-palmitylthio-2-palmitoylamido-1,2-dideoxy-sn-glycero-3-phosphorylcholine (T-PC) and methyl arachidonyl fluorophosphonate (MAFP) were used as inhibitors of sPLA2 (IB, IIA, and V) and Lp-PLA2, respectively, per manufacturers' instructions.

[3] = Body weight in carotid artery injury study; format: in vivo, mouse; details: apoE−/− mice
Method: The carotid artery injury assay was performed as described by Kuhel (16). Male apoE−/− mice were obtained from Jackson Laboratory (Bar Harbor, Me.) and maintained on a 12 hour light/dark cycle. All animal experimentation protocols were performed under institutional guidelines of animal welfare, in accordance with NIH guidelines. Mice were fed either normal rodent chow diet (5001, LabDiet) (n=10) or normal chow diet containing 0.15% morelloflavone (w/w) (n=9). This diet corresponded to 200 mg/kg morelloflavone if a 30 gm mouse consumes 4 grams of chow. Mice were placed on these diets for 7 days before they underwent carotid artery denudation by the insertion of an epoxy resin (Epon) probe as described (16).

Cdc42 = experiment: GTPase activation assay, Cdc42; format: cell-based, mouse; set-up: dose or concentration left out as unconfirmed
Method: To assess the phosphorlyation status of ERK, […] of whole cell lysates was loaded onto SDS-PAGE, and Western blot analysis was done using anti-p-ERK (Santa Cruz; E-4; sc-7383) and anti-ERK (Santa Cruz; K-23; sc-94) antibodies. To detect active RhoA, Rac1 and Cdc42, generated GST-tagged RhoA binding domain of Rhotekin protein (GST-Rhotekin-RBD) and GST-tagged p21-binding domain of p21-activated kinase 1 (PAK1)(GST-PAK1-PBD) were first generated. Briefly, E. coli BL21 cells transformed with pGEX4T-PAK1-PBD or pGEX4T-Rh,otekin-RBD were grown at 37° C. and expression of recombinant protein was induced by addition of 0.1 mM IPTG for 3 hours. Cells were resuspended in lysis buffer (50 mM Tris-HCl, pH 8.0, 10% glycerol, 20% sucrose, 2 mM DTT, 1 mg/ml leupeptin, 1 mg/ml pepstatin, and 1 mg/ml aprotinin), sonicated, and centrifuged at 4° C. for 30 min at 45,000 g. The supernatant was incubated with glutathione sepharose 4B beads (GE-Amersham, Piscataway, N.J.) for 1 hour at 4° C., and then washed 3 times in lysis buffer. Using these GST-proteins, GTPase activation assays were performed as described. […]

[4] = system: vascular smooth muscle cells; experiment: Cell attachment; format: cell-based

In the case of O=C1c2c(O)cc(O)cc2O[C@H](c2ccc(O)cc2)[C@H]1c1c(O)cc(O)c2c(=O)cc(-c3ccc(O)c(O)c3)oc12 [morelloflavone, 5,7, 4′, 5″, 7″, 3″, 4″-heptahydroxy-[3,8″]-flavonylflavanone], the “phosphorylation of FAK” value [1] is reported as “inhibited; also recorded: robustly decreased phosphorylation; also recorded: blocks”, the “cytotoxicity / cell survival (MTT)” value [2] is reported as “no cytotoxicity; also recorded: does not affect; also recorded: not cytotoxic; also recorded: does not induce cytotoxicity” and the “phosphorylation of c-Src” value (c-Src) is reported as “inhibited; also recorded: robustly decreased phosphorylation; also recorded: blocks”. For the same molecule, the “change in serum phospholipid concentration” value (Analysis of lipids) was “no changes”, the “non-esterified fatty acid levels” value (Analysis of lipids) was 0.89±0.13 and the serum cholesterol (Analysis of lipids) was 507.2 ± 95.8 mg/dL. The serum triglycerides (Analysis of lipids) was 179.9±28.0, the IC50 (sPLA2-IB) was over 10 µM and the Body weight ([3]; at the time of sacrifice) was 23.3 ± 1.5 g. For the same molecule, the Body weight ([3]; before injury) was 24.0 ± 2.0 g, the “activation of Cdc42” value (Cdc42) was “blocks the activation” and the “activation of Cdc42” value (Cdc42; concentration not given) was “no significant effect; also recorded: without affecting”. For the same molecule, the “effect on cell attachment” value [4] was “does not affect cell attachment”.
